As a reminder, the ΔTm is the change in melting temperature against a reference sample.

In assay [1] the test system is F21D (DNA, G4) GGGTTAGGGTTAGGGTTAGGG
Kind of assay: FRET melting. The conditions noted are these: 5 mM K+, 95 mM Li+, 10 mM lithium cacodylate, pH 7.2, 0.2 µM F21D.

Assay [2] relates to Tel22 (DNA, G4) AGGGTTAGGGTTAGGGTTAGGG
Kind of assay: UV-Vis titration, Direct Fit. The conditions noted are these: 5 mM K+, 95 mM Li+; 10 mM lithium cacodylate, pH 7.2; equivalent independent sites assumed; per site.

Turning to `NCCCNCCCCNCCCNC(=O)c1ccc(-c2c3nc(c(-c4ccc(C(=O)NCCCNCCCCNCCCN)cc4)c4ccc([n-]4)c(-c4ccc(C(=O)NCCCNCCCCNCCCN)cc4)c4nc(c(-c5ccc(C(=O)NCCCNCCCCNCCCN)cc5)c5ccc2[n-]5)C=C4)C=C3)cc1.O.[Zn+2]`, the ΔTm in assay [1] (20 eq. compound, weak stabilization up to 8 eq.) was 33 ± 2 °C. Besides, the Ka result in assay [2] is given as “(1.4 ± 0.7) × 10^7 M^-1”.
Consider `NCCCNCCCCNCCCNC(=O)c1ccc(-c2c3nc(c(-c4ccc(C(=O)NCCCNCCCCNCCCN)cc4)c4ccc([nH]4)c(-c4ccc(C(=O)NCCCNCCCCNCCCN)cc4)c4nc(c(-c5ccc(C(=O)NCCCNCCCCNCCCN)cc5)c5ccc2[nH]5)C=C4)C=C3)cc1`, for which the shift in melting temperature (ΔTm) in assay [1] (7.5 eq. compound) is 36 ± 2 °C. The Ka entry in assay [2] was “(4.7 ± 0.7) × 10^6 M^-1”.
